Measured values taken from patent publication US20120136003A1, “COMPOUNDS, COMPOSITIONS AND METHODS COMPRISING 1,3,4-OXADIAZOLE DERIVATIVES” (Institute For Oneworld Health, priority 2009, published 2012).

Legend:
CFTR [1] = target: T1, CFTR (Homo sapiens, UniProt P13569); experiment: T84 assay (FLIPR membrane potential); format: cell-based; set-up: Human colonic T84 cells are acquired from the European Collection of Cell Cultures (ECACC); host or cells: T84 human colonic cells
Procedure: (§1) For example, Human colonic T84 cells can be acquired from the European Collection of Cell Cultures (ECACC) and grown in standard culture conditions as described by the supplier. On the day before assay 25,000 T84 cells per well are plated into standard black walled, clear bottom 384-well assay plates in standard growth medium consisting of DMEM:F12 with 10% FBS and incubated overnight. On the day of the assay the plates are washed using a standard assay buffer (HBSS with 10 mM Hepes) and incubated for 15 minutes in serum free cell culture medium before the addition of a commercially available membrane potential sensitive fluorescent dye (FLIPR Red membrane potential dye, Molecular Devices Corporation). T84 cells are incubated with the FLIPR Red membrane potential dye for 45 minutes in the presence and absence of test compound before being transferred to a commercially available fluorescence imaging plate reader (FLIPR384, Molecular Devices Corporation). Fluorescence levels are monitored continuously every second for 150 seconds; after an initial 10 second baseline, CFTR channel activity is stimulated through the addition of 10 μM forskolin in the presence of 100 μM of the phosphodiesterase inhibitor iso-butyl-methylxanthine (IBMX). Addition of the forskolin leads to the activation of intracellular adenylyl cylase 1, elevating cAMP levels and results in the phosphorylation and opening of CFTR anion channels. CFTR channel opening causes chloride ion efflux and subsequent depolarization of the cells, which is measured by an increase in fluorescence. CFTR inhibitor compounds prevent cell depolarization and the associated increase in fluorescence.
as §1, with “Human colonic” for “For example, Human colonic”, “T84 cells are acquired from” for “T84 cells can be acquired from”, “(ECACC) and are grown in” for “(ECACC) and grown in”, “with 10 Mm Hepes) and” for “with 10 mM Hepes) and”, “1, elevating Camp levels and” for “1, elevating cAMP levels and”
Target sequence in this assay (P13569 whole entry): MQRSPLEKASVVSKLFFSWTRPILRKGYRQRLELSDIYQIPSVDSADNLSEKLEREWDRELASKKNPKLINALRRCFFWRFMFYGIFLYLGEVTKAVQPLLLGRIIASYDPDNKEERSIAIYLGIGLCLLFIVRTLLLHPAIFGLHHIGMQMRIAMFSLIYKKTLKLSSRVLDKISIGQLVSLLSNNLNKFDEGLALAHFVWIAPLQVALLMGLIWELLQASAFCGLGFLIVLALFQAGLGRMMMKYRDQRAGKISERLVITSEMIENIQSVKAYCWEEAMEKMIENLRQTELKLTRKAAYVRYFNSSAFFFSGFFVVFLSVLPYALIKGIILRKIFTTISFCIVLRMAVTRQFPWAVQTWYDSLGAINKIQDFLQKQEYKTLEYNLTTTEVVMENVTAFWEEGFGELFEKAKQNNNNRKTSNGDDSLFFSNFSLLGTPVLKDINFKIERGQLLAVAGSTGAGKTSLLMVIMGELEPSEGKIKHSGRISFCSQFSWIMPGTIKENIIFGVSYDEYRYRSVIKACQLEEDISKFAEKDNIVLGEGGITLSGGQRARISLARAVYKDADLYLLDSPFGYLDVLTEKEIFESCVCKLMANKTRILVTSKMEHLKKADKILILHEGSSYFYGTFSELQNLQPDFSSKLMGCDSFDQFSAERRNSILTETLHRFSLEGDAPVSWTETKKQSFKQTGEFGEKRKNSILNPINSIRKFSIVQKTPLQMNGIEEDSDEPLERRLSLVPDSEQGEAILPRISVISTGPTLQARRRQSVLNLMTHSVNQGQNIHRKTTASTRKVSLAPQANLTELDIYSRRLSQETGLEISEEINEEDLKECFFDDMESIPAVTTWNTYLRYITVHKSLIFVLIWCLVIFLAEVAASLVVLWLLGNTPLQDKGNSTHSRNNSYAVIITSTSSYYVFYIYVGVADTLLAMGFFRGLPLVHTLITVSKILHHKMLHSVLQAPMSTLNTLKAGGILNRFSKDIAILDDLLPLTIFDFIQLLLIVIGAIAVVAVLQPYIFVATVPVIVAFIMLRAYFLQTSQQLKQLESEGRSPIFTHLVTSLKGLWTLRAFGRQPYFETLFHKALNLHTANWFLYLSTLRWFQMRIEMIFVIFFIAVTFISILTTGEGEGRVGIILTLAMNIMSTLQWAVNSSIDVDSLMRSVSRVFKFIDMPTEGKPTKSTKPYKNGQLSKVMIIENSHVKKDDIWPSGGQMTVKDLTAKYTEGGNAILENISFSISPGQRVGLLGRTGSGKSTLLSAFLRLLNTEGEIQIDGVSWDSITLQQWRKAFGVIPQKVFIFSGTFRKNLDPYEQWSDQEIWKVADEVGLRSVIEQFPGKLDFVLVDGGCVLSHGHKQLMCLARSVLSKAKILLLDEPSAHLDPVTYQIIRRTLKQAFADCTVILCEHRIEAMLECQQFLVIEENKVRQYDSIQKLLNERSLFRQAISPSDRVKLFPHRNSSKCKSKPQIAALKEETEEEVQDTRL

[2] = test system: mice (CD1 strain), intestinal loops with cholera toxin (CTX); conditions: mouse, in vivo
CFTR [3] = target: T1, CFTR; experiment: CHO-CFTR IonWorks Quattro (IWQ) population patch clamp; format: cell-based; set-up: expressed in transfected cells; host or cells: CHO-K1 cells, stably transfected; conditions: @-60 mV; room temperature
Procedure: Currents were recorded at room temperature (21-23° C.) using IonWorks® Quattro™ (Molecular Devices, Inc) Population Patch Clamp (PPC) mode automated electrophysiology recording techniques.
Before recording commenced, a T175 culture flask containing CHO-K^1 cells stably transfected with the CFTR gene were washed with 10 ml of Dulbecco's phosphate buffered saline (without Ca^2+ or Mg^2+) followed by addition of 1 ml of 0.05% Trypsin EDTA (Invitrogen, cat no. 25300054) to the flask. After 1-2 minutes incubation, flasks were gently tapped to lift the cells from the substrate and 10 ml of complete media added. Cells were spun at 1,000 rpm for 3 minutes, followed by re-suspension of the pellet in external buffer and use of the resulting cell suspension at a density of 2×10^6 cells per ml. The external solution used for recording was Dulbecco's phosphate buffered saline (Invitrogen, cat no. 14040091) and contained (in mM) 137.9 NaCl, 2.7 KCl, 0.901 CaCl2, 0.5 MgCl2.6H2O, 1.5 KH2PO4, 8.1 Na2HPO4.7H2O. The internal solution contained the following (in mM): 10 NaCl (Sigma, cat no. S7653), 90 KGluconate (Sigma, cat no. G4500), 30 KF (Sigma, cat no. 60238), 1 MgCl2 (Fluka, cat no. 63020), 5 EGTA (Sigma, cat no. E3889), 10 HEPES (Sigma, cat no. H3375); pH 7.4 with KOH. […]
Target sequence in this assay (P13569 whole entry, species assumed): as the sequence (P13569 whole entry) above

CFTR [4] = target: T1, CFTR; experiment: CHO-CFTR assay (FLIPR assay); format: cell-based; set-up: expressed in transfected cells; host or cells: CHO-K1 cells, stably transfected; conditions: same assay conditions (FLIPR assay); read-out: IC50 value in the CHO-CFTR cell line
Target sequence in this assay (P13569 whole entry, species assumed): as the sequence (P13569 whole entry) above

O=C(c1nnc(-c2cc(Cl)c(O)c(Cl)c2)o1)N1CCN(c2cccc(C(F)(F)F)c2)CC1 [Compound 4, (5-(3,5-dichloro-4-hydroxyphenyl)-1,3,4-oxadiazol-2-yl)(4-(3-(trifluoromethyl)phenyl)piperazin-1-yl)methanone]
IC50 (CFTR [1]): 16.9 µM
closed loop % inhibition [2]: 92.5%
IC50 (CFTR [3]): 4.71 µM
IC50 (CFTR [4]): 10.6 µM
